Measurements from patent publication US9006450B2 (Boehringer Ingelheim International GmbH, priority 2010, dated 2015).

target: T1, human ACC2 (Homo sapiens, UniProt O00763); experiment: ACC2 assay, spectrophotometric 384 well assay (NADH-linked, coupled lactate dehydrogenase/pyruvate kinase); assay type: biochemical; conditions: ACC2 assay, hACC2 construct lacking 128 N-terminal amino acids, 25° C., 340 nm; read-out: IC50
T1 construct: made in house; host or cells: insect cells (baculoviral expression system)
Method in brief: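 ADP output tracked via pyruvate kinase/lactate dehydrogenase NADH oxidation, slope at 340 nm over 15 min, 25° C, with 500 μM ATP and 200 μM each acetyl-CoA and NADH. Enzyme: insect-cell-expressed human ACC2, N-terminal 128 residues deleted; pH 7.5 Tris with citrate, KHCO3. IC50 from four-parameter regression versus vehicle and no-acetyl-CoA controls.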

T1 sequence (O00763 129-2458 limits assumed): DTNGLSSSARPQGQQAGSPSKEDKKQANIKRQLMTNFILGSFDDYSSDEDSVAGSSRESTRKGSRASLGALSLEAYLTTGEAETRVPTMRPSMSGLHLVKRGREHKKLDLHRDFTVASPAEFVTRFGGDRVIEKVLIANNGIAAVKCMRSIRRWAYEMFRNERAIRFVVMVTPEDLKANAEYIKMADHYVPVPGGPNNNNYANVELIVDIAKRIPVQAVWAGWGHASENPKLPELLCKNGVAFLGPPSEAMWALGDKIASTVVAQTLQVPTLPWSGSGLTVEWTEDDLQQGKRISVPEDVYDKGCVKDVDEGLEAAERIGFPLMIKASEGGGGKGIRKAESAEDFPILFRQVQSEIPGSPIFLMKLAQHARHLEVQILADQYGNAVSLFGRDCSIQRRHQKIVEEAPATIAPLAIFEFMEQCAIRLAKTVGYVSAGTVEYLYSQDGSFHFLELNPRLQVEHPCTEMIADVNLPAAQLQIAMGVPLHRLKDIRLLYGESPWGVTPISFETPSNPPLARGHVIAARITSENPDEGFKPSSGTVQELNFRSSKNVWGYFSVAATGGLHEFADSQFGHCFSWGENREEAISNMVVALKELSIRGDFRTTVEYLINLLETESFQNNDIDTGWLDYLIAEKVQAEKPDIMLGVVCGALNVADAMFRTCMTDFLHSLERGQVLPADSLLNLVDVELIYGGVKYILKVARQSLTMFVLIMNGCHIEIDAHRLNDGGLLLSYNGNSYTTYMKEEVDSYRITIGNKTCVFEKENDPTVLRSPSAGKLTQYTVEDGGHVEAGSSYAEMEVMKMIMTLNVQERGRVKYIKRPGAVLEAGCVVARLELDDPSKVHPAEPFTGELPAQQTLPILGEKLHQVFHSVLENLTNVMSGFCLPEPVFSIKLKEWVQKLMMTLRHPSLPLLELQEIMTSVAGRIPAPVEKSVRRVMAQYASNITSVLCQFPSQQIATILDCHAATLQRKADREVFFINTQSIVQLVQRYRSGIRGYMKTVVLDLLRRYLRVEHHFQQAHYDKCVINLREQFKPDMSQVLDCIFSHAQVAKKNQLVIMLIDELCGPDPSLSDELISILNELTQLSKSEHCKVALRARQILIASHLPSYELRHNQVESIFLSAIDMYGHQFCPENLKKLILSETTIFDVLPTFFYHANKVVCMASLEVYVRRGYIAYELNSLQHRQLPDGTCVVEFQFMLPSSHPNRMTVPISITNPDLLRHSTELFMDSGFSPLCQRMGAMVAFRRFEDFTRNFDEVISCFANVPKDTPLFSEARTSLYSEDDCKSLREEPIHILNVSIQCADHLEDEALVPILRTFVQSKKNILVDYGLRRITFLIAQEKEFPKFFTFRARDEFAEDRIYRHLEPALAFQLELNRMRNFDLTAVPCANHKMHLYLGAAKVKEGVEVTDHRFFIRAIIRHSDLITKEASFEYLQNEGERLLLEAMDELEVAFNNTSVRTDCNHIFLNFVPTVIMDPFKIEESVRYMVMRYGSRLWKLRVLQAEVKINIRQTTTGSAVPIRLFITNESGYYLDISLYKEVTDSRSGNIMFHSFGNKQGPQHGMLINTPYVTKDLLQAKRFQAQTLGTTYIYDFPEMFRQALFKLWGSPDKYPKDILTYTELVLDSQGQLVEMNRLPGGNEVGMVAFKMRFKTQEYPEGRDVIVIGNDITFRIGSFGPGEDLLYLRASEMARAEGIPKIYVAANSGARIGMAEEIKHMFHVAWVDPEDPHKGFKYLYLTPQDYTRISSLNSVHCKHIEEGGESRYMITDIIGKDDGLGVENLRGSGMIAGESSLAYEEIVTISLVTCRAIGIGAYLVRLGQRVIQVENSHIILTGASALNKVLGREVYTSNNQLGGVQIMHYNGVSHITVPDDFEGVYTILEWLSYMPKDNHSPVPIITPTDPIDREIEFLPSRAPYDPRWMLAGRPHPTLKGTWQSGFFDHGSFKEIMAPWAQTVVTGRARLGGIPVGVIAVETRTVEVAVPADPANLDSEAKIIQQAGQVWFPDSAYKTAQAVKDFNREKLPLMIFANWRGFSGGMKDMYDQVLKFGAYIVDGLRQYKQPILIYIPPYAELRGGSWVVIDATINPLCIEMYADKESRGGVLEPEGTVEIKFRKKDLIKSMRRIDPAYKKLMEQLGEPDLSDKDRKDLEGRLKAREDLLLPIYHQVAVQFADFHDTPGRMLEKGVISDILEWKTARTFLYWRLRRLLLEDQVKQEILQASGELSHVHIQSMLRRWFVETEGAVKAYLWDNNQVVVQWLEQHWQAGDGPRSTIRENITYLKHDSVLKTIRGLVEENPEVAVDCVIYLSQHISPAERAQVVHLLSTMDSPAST

Row | SMILES | IC50
1 | COc1ccc(-c2cnc(N3CCC(c4ccc([C@H](C)NC(C)=O)cc4)CC3)nc2)cc1OC [Example 10.35] | 1100 nM
2 | COc1ccc(-c2cnc(N3CCC(c4ccc([C@H](C)NC(C)=O)cc4)CC3)nc2)c(C(F)(F)F)c1 [Example 10.36] | 210 nM
3 | COc1ccc(-c2cnc(N3CCC(c4ccc([C@H](C)NC(C)=O)cc4)CC3)nc2)c(F)c1 [Example 10.37] | 190 nM
4 | CCOc1ccc(-c2cnc(N3CCC(c4ccc([C@H](C)NC(C)=O)cc4)CC3)nc2)cn1 [Example 10.38] | 3000 nM
5 | COc1ccc2cc(-c3cnc(N4CCC(c5ccc([C@H](C)NC(C)=O)cc5)CC4)nc3)ccc2c1 [Example 10.40] | 6900 nM
6 | CC(=O)N[C@@H](C)c1ccc(C2CCN(c3ncc(-c4ccc(C5CC5)cc4)cn3)CC2)cc1 [Example 10.41] | 1900 nM
7 | CC(=O)N[C@@H](C)c1ccc(C2CCN(c3ncc(-c4ccccc4)cn3)CC2)cc1 [Example 10.43] | 30 nM
8 | CC(=O)N[C@@H](C)c1ccc(C2CCN(c3ncc(-c4ccc(C)cc4)cn3)CC2)cc1 [Example 10.44] | 100 nM
9 | CC(=O)N[C@@H](C)c1ccc(C2CCN(c3ncc(-c4ccc(C(F)(F)F)cc4)cn3)CC2)cc1 [Example 10.45] | 1100 nM
10 | CC(=O)N[C@@H](C)c1ccc(C2CCN(c3ncc(-c4ccc5[nH]ccc5c4)cn3)CC2)cc1 [Example 10.46] | 140 nM
11 | CC(=O)N[C@@H](C)c1ccc(C2CCN(c3ncc(-c4ccc(C)c(C)c4)cn3)CC2)cc1 [Example 10.47] | 270 nM
12 | CC(=O)N[C@@H](C)c1ccc(C2CCN(c3ncc(-c4ccc(C)cc4C)cn3)CC2)cc1 [Example 10.48] | 1200 nM
13 | CC(=O)N[C@@H](C)c1ccc(C2CCN(c3ncc(-c4ccc(F)c(C)c4)cn3)CC2)cc1 [Example 10.49] | 260 nM
14 | CC(=O)N[C@@H](C)c1ccc(C2CCN(c3ncc(-c4ccc(F)c(C#N)c4)cn3)CC2)cc1 [Example 10.50] | 50 nM
15 | CC(=O)N[C@@H](C)c1ccc(C2CCN(c3ncc(-c4ccc(OCC5CC5)nc4)cn3)CC2)cc1 [Example 10.51] | 1500 nM
16 | CC(=O)N[C@@H](C)c1ccc(C2CCN(c3ncc(-c4ccc(F)c(F)c4)cn3)CC2)cc1 [Example 10.52] | 70 nM
17 | CC(=O)N[C@@H](C)c1ccc(C2CCN(c3ncc(-c4ccc(F)cc4F)cn3)CC2)cc1 [Example 10.53] | 80 nM
18 | CC(=O)N[C@@H](C)c1ccc(C2CCN(c3ncc(-c4cc(C)ccc4C)cn3)CC2)cc1 [Example 10.54] | 420 nM
19 | CC(=O)N[C@@H](C)c1ccc(C2CCN(c3ncc(-c4ccccc4C#N)cn3)CC2)cc1 [Example 10.55] | 640 nM
20 | CC(=O)N[C@@H](C)c1ccc(C2CCN(c3ncc(-c4cscc4C)cn3)CC2)cc1 [Example 10.56] | 320 nM
21 | COc1ccc(-c2cnc(N3CCC(c4ccc([C@H](C)NC(C)=O)cc4)CC3)nc2)cc1Cl [Example 10.57] | 240 nM
22 | COc1ncccc1-c1cnc(N2CCC(c3ccc([C@H](C)NC(C)=O)cc3)CC2)nc1 [Example 10.58] | 760 nM
23 | CC(=O)N[C@@H](C)c1ccc(C2CCN(c3ncc(-c4ccc(F)cc4C)cn3)CC2)cc1 [Example 10.60] | 390 nM
24 | CC(=O)N[C@@H](C)c1ccc(C2CCN(c3ncc(-c4ccc(C#N)cc4C)cn3)CC2)cc1 [Example 10.61] | 530 nM

Row | SMILES | IC50
25 | CC(=O)N[C@@H](C)c1ccc(C2CCN(c3ncc(-c4ccsc4)cn3)CC2)cc1 [Example 10.62] | 50 nM
26 | CC(=O)N[C@@H](C)c1ccc(C2CCN(c3ncc(-c4ccc(C#N)s4)cn3)CC2)cc1 [Example 10.63] | 30 nM
27 | CCSc1ccc(-c2cnc(N3CCC(c4ccc([C@H](C)NC(C)=O)cc4)CC3)nc2)cc1 [Example 10.64] | 7000 nM
28 | COc1cc(-c2cnc(N3CCC(c4ccc([C@H](C)NC(C)=O)cc4)CC3)nc2)ccc1C [Example 10.65] | 330 nM
29 | CC(=O)N[C@@H](C)c1ccc(C2CCN(c3ncc(-c4ccc(C)cc4Cl)cn3)CC2)cc1 [Example 10.66] | 160 nM
30 | CC(=O)N[C@@H](C)c1ccc(C2CCN(c3ncc(-c4ccc(C)c(Cl)c4)cn3)CC2)cc1 [Example 10.67] | 90 nM
31 | COc1cncc(-c2cnc(N3CCC(c4ccc([C@H](C)NC(C)=O)cc4)CC3)nc2)c1 [Example 10.68] | 320 nM
32 | CC(=O)N[C@@H](C)c1ccc(C2CCN(c3ncc(-c4cncc(F)c4)cn3)CC2)cc1 [Example 10.69] | 270 nM
33 | CC(=O)N[C@@H](C)c1ccc(C2CCN(c3ncc(-c4ccc5ncccc5c4)cn3)CC2)cc1 [Example 10.70] | 230 nM
34 | CC(=O)N[C@@H](C)c1ccc(C2CCN(c3ncc(C4=CCCCC4)cn3)CC2)cc1 [Example 10.71] | 150 nM
35 | CC(=O)N[C@@H](C)c1ccc(C2CCN(c3ncc(-c4cccn4C)cn3)CC2)cc1 [Example 10.72] | 1200 nM
36 | CC(=O)N[C@@H](C)c1ccc(C2CCN(c3ncc(-c4ccc5nccnc5c4)cn3)CC2)cc1 [Example 10.73] | 180 nM
37 | CC(=O)N[C@@H](C)c1ccc(C2CCN(c3ncc(-c4cnc(Br)n4C)cn3)CC2)cc1 [Example 10.74] | 1200 nM
38 | CC(=O)N[C@@H](C)c1ccc(C2CCN(c3ncc(-c4ccc5sccc5c4)cn3)CC2)cc1 [Example 10.75] | 50 nM
39 | CC(=O)N[C@@H](C)c1ccc(C2CCN(c3ncc(-c4ccc(Cl)c(C)c4)cn3)CC2)cc1 [Example 10.76] | 110 nM
40 | CSc1ccc(-c2cnc(N3CCC(c4ccc([C@H](C)NC(C)=O)cc4)CC3)nc2)c(C(F)(F)F)c1 [Example 10.77] | 1600 nM
41 | CC(=O)N[C@@H](C)c1ccc(C2CCN(c3ncc(-c4ccc(O)c(Cl)c4)cn3)CC2)cc1 [Example 10.78] | 200 nM
42 | CC(=O)N[C@@H](C)c1ccc(C2CCN(c3ncc(-c4cncc(C#N)c4)cn3)CC2)cc1 [Example 10.79] | 1100 nM
43 | CC(=O)N[C@@H](C)c1ccc(C2CCN(c3ncc(-c4cccc(C#N)c4)cn3)CC2)cc1 [Example 10.80] | 140 nM
44 | CC(=O)N[C@@H](C)c1ccc(C2CCN(c3ncc(-c4ccc(N(C)C)nc4)cn3)CC2)cc1 [Example 10.81] | 10400 nM
45 | CC(=O)N[C@@H](C)c1ccc(C2CCN(c3ncc(-c4ccc(C#N)nc4)cn3)CC2)cc1 [Example 10.82] | 150 nM
46 | CC(=O)N[C@@H](C)c1ccc(C2CCN(c3ncc(-c4cnc(C#N)nc4)cn3)CC2)cc1 [Example 10.83] | 1900 nM
47 | CC(=O)N[C@@H](C)c1ccc(C2CCN(c3ncc(C4=CCOCC4)cn3)CC2)cc1 [Example 10.84] | 1300 nM
48 | CC(=O)N[C@@H](C)c1ccc(C2CCN(c3ncc(-c4ccc(C(F)(F)F)nc4)cn3)CC2)cc1 [Example 10.85] | 2600 nM

Row | SMILES | IC50
49 | CC(=O)N[C@@H](C)c1ccc(C2CCN(c3ncc(-c4ccc5[nH]ncc5c4)cn3)CC2)cc1 [Example 10.86] | 5900 nM
50 | CC(=O)N[C@@H](C)c1ccc(C2CCN(c3ncc(-c4ccc5c(c4)OCO5)cn3)CC2)cc1 [Example 10.87] | 70 nM
51 | CC(=O)N[C@@H](C)c1ccc(C2CCN(c3ncc(-c4ccc5occc5c4)cn3)CC2)cc1 [Example 10.88] | 30 nM
52 | CC(=O)N[C@@H](C)c1ccc(C2CCN(c3ncc(-c4ccc5c(c4)CCCO5)cn3)CC2)cc1 [Example 10.90] | 350 nM
53 | CC(=O)N[C@@H](C)c1ccc(C2CCN(c3ncc(-c4coc5ccccc45)cn3)CC2)cc1 [Example 10.91] | 170 nM
54 | CC(=O)N[C@@H](C)c1ccc(C2CCN(c3ncc(-c4cccc5c4OCC5)cn3)CC2)cc1 [Example 10.92] | 370 nM
55 | CC(=O)N[C@@H](C)c1ccc(C2CCN(c3ncc(C4=CCC5(CC4)OCCO5)cn3)CC2)cc1 [Example 10.93] | 4300 nM
56 | CC(=O)N[C@@H](C)c1ccc(C2CCN(c3ncc(-c4cccnc4C)cn3)CC2)cc1 [Example 10.94] | 2300 nM
57 | CC(=O)N[C@@H](C)c1ccc(C2CCN(c3ncc(-c4cnccc4C)cn3)CC2)cc1 [Example 10.95] | 2000 nM
58 | CC(=O)N[C@@H](C)c1ccc(C2CCN(c3ncc(-c4ccco4)cn3)CC2)cc1 [Example 10.96] | 600 nM
59 | CC(=O)N[C@@H](C)c1ccc(C2CCN(c3ncc(-c4ccccc4CC#N)cn3)CC2)cc1 [Example 10.97] | 8200 nM
60 | C[C@H](NC(=O)C1CC1)c1ccc(C2CCN(c3ncc(-c4ccc5c(c4)CCO5)cn3)CC2)cc1 [Example 10.98] | 900 nM
61 | C[C@H](NC(=O)N(C)C)c1ccc(C2CCN(c3ncc(-c4ccc5c(c4)CCO5)cn3)CC2)cc1 [Example 10.99] | 380 nM
62 | Cc1cccc(-c2cnc(N3CCC(c4ccc([C@H](C)NC(=O)C5CC5)cc4)CC3)nc2)c1 [Example 10.100] | 90 nM
63 | C[C@H](NC(=O)C1CC1)c1ccc(C2CCN(c3ncc(-c4ccc(F)cc4)cn3)CC2)cc1 [Example 10.101] | 80 nM
64 | C[C@H](NC(=O)C1CC1)c1ccc(C2CCN(c3ncc(-c4ccc(C#N)cc4)cn3)CC2)cc1 [Example 10.102] | 240 nM
65 | C[C@H](NC(=O)C1CC1)c1ccc(C2CCN(c3ncc(-c4ccccc4F)cn3)CC2)cc1 [Example 10.103] | 560 nM
66 | C[C@H](NC(=O)C1CC1)c1ccc(C2CCN(c3ncc(-c4ccoc4)cn3)CC2)cc1 [Example 10.104] | 170 nM
67 | C[C@H](NC(=O)C1CC1)c1ccc(C2CCN(c3ncc(-c4ccccc4)cn3)CC2)cc1 [Example 10.105] | 100 nM
68 | Cc1cccc(-c2cnc(N3CCC(c4ccc([C@H](C)NC(=O)N(C)C)cc4)CC3)nc2)c1 [Example 10.107] | 110 nM
69 | C[C@H](NC(=O)N(C)C)c1ccc(C2CCN(c3ncc(-c4ccc(F)cc4)cn3)CC2)cc1 [Example 10.108] | 90 nM
70 | C[C@H](NC(=O)N(C)C)c1ccc(C2CCN(c3ncc(-c4ccc(C#N)cc4)cn3)CC2)cc1 [Example 10.109] | 90 nM
71 | C[C@H](NC(=O)N(C)C)c1ccc(C2CCN(c3ncc(-c4ccccc4F)cn3)CC2)cc1 [Example 10.110] | 430 nM
